Data as given in patent publication US20120295965A1, “FUSED THIOPHENES AS DUAL INHIBITORS OF EGFR/VEGFR AND THEIR USE IN THE TREATMENT OF CANCER” (priority 2009, published 2012).

Key:
[1] = test system: mallotoxin response in HT29; assay: Epic label-free DMR biosensor cellular assay, hERG activator mallotoxin marker in HT29
Protocol: HT29 expresses VEGFR1 (Flt1 receptor), but not other VEGF receptors.
(§1) All cell lines were obtained from American Type Cell Culture (Manassas, Va.). The cell culture medium was as follows: (1) Dulbecco's modified Eagle's medium (DMEM) supplemented with 10% fetal bovine serum (FBS), 4.5 g/liter glucose, 2 mM glutamine, and antibiotics for human epidermoid carcinoma A431; and (2) McCoy's 5a Medium Modified supplemented with 10% FBS, 4.5 g/liter glucose, 2 mM glutamine, and antibiotics for human colorectal adenocarcinoma HT29.
Cells were typically grown using ˜1 to 2×10^4 cells per well at passage 3 to 15 suspended in 50 μl of the corresponding culture medium in the biosensor microplate, and were cultured at 37° C. under air/5% CO2 for ˜1 day. Except for A431 which underwent one day culture followed by one starvation in serum free medium, all other cells were directly assayed without starvation.
(§2) Epic® beta version wavelength interrogation system (Corning Inc., Corning, N.Y.) was used for whole cell sensing. This system consists of a temperature-control unit, an optical detection unit, and an on-board liquid handling unit with robotics. The detection unit is centered on integrated fiber optics, and enables kinetic measures of cellular responses with a time interval of ˜15 sec.
For biosensor cellular assays, molecule solutions were made by diluting the stored concentrated solutions with the HBSS (1× Hanks balanced salt solution, plus 20 mM Hepes, pH 7.1), and transferred into a 384well polypropylene molecule storage plate to prepare a molecule source plate. Both molecule and marker source plates were made separately when a two-step assay was performed. In parallel, the cells were washed twice with the HBSS and maintained in 30 μl of the HBSS to prepare a cell assay plate. Both the cell assay plate and the molecule and marker source plate(s) were then incubated in the hotel of the reader system. After ˜1 hr of incubation the baseline wavelengths of all biosensors in the cell assay microplate were recorded and normalized to zero. Afterwards, a 2 to 10 minute continuous recording was carried out to establish a baseline, and to ensure that the cells reached a steady state. Cellular responses were then triggered by pipetting 10 μl of the marker solutions into the cell assay plate using the on-board liquid handler.
(§3) To study the influence of molecules on a marker-induced response, a second stimulation with the marker at a fixed dose (typically at EC80 or EC100) was applied. The resonant wavelengths of all biosensors in the microplate were normalized again to establish a second baseline, right before the second stimulation. The two stimulations were usually separated by ˜1 hr.
(§4) All studies were carried out at a controlled temperature (28° C.). At least two independent sets of experiments, each with at least three replicates, were performed.
(§5) The DMR modulation index were generated against 4 markers across two distinct cell lines—the EGFR agonist EGF in A431 (EGF at 32 nM), and the EGFR agonist EGF in HT29 (EGF at 2 nM), the hERG activator mallotoxin (MTX) in HT29 (MTX at 16 micromlar), and the NTS1/NTS3 agonist neurotensin (NT) in HT29 (NT at 2 nM). The EGF responses in A431 cells include the early P-DMR event (˜5 min after EGF stimulation) and the subsequent N-DMR event (˜30 min after EGF stimulation). The EGF responses in HT29 include the early P-DMR event (˜5 min after EGF stimulation) and the late P-DMR event (˜50 min after EGF stimulation), whereas the mallotoxin response in HT29 is the P-DMR response 50 min after MTX stimulation, and the NT response in HT29 is the P-DMR 50 min after NT stimulation. In all cases, the amplitudes of respective DMR events were used as the basis to calculate the percentages of modulation by each inhibitor.

[2] = test system: EGF response in A431 cells; assay: Epic label-free DMR biosensor cellular assay, EGF marker in A431; assay type: cell-based, human
Protocol: as §1
(§6) Cells were typically grown using ˜1 to 2×10^4 cells per well at passage 3 to 15 suspended in 50 μl of the corresponding culture medium in the biosensor microplate, and were cultured at 37° C. under air/5% CO2 for ˜1 day. Except for A431 which underwent one day culture followed by one starvation in serum free medium, all other cells were directly assayed without starvation. The confluency for all cells at the time of assays was ˜95% to 100%.
as §2, §3, §4, §5

[3] = test system: EGF response in HT29; assay: Epic label-free DMR biosensor cellular assay, EGF marker in HT29; assay type: cell-based, human
Protocol: as §1, §6, §2, §3, §4, §5

[4] = test system: NT response in HT29; assay: Epic label-free DMR biosensor cellular assay, neurotensin marker in HT29; assay type: cell-based, human
Protocol: The NTS1 natural agonist neurotensin is known to activate the endogenous NTS1/NTS3 heterodimers in HT29 cells. […] Thus, neurotensin was chosen as an indirect marker for identifying potential EGFR inhibitors.
as §1, §6, §2, §3, §4, §5

[5] = target: T1, EGFR (Homo sapiens, UniProt P00533); conditions: known inhibitors; cited from earlier work
T1 sequence (P00533 25-1210): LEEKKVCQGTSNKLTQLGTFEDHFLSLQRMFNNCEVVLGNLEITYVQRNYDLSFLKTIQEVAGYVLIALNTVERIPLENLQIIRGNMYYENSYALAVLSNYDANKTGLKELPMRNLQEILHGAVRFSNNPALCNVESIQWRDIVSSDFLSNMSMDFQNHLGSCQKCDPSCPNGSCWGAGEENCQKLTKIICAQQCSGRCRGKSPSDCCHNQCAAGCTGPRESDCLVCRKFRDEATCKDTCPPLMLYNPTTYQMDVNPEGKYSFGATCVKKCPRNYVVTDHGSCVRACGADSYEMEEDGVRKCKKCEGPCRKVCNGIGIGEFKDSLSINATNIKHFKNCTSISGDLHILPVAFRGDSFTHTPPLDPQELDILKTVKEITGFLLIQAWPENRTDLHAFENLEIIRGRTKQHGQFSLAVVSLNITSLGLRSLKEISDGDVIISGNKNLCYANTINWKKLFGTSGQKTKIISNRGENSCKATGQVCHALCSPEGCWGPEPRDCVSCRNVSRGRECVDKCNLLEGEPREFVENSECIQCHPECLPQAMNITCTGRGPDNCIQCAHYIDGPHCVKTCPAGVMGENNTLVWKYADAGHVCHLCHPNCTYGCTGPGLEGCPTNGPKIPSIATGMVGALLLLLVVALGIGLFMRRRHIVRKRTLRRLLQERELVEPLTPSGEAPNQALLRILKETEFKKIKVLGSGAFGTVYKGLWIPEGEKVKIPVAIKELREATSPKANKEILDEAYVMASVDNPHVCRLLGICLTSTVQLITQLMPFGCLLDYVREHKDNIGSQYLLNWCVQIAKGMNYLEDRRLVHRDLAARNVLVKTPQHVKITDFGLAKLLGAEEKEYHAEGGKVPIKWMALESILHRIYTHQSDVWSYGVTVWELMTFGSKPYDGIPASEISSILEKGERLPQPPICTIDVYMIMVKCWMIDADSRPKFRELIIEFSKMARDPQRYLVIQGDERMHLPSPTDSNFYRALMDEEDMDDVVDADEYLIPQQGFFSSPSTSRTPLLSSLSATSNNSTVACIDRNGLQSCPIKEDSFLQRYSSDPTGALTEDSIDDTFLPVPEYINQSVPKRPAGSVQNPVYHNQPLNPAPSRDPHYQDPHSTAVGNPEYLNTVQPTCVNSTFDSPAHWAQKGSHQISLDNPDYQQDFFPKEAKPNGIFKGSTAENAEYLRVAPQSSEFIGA

[6] = target: T2, VEGFR1 (FLT1) (Homo sapiens, UniProt P17948); assay: LanthaScreen TR-FRET kinase assay, VEGFR1 (FLT1); assay type: biochemical
T2 construct: purchased Invitrogen
T2 sequence (P17948 27-1338): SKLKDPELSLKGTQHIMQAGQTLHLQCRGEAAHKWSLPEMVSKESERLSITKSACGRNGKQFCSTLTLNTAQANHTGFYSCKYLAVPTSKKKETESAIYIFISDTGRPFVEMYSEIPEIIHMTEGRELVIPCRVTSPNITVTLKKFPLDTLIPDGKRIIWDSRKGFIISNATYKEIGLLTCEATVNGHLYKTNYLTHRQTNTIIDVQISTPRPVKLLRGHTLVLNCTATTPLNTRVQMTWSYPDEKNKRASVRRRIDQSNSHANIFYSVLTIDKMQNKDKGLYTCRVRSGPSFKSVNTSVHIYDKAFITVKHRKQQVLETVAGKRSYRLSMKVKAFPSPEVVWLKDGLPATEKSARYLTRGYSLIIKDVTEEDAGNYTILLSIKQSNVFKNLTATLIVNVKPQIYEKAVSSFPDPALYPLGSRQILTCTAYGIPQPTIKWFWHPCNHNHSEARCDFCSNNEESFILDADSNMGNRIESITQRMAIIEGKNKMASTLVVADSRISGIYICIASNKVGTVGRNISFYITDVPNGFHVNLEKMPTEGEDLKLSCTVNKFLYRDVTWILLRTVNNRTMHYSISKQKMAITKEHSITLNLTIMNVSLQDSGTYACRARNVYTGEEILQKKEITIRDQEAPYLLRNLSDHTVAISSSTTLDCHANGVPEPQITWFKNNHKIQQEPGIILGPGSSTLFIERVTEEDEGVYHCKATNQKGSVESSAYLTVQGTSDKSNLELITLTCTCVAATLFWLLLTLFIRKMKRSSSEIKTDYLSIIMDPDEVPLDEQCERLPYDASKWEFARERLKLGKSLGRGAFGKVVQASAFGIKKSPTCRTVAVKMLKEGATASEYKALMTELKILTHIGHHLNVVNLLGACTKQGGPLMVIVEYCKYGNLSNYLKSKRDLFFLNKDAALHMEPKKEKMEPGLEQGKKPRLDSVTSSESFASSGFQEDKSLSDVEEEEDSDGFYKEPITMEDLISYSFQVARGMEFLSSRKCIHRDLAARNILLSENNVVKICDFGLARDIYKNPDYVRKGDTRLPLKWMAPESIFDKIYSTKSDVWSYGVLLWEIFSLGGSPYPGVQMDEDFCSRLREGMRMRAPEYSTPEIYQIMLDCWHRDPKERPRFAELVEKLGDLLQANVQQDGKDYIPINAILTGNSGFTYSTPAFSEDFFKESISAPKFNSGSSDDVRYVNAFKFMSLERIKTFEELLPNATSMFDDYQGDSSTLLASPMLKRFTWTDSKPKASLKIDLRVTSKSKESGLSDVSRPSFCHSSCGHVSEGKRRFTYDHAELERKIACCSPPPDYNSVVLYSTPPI
Protocol: (§7) LanthaScreen TR-FRET kinase assay reagents and the recombinant EGFR, VEGFR1 (FLT1), VEGFR2 (KDR) were purchased from Invitrogen. Known kinase inhibitors were used as positive controls.
(§8) Each EGFR reaction contains 51 ng/ml kinase, 2.4 μM ATP and 0.2 μM substrate. […] Each VEGFR2 (KDR) reaction contains 4 ng/ml kinase, 13 μM ATP and 0.2 μM substrate. Kinase reactions are allowed to proceed for 1 hour at room temperature before a 10 μl preparation of EDTA (20 mM) and Tb-labeled antibody (4 nM) in TR-FRET dilution buffer are added. The final concentration of antibody in the assay well is 2 nM, and the final concentration of EDTA is 10 mM. The plate is allowed to incubate at room temperature for at least 30 minutes before being read on a Tecan SafireII plate reader configured for LanthaScreen™ TR-FRET (Excitation at 340 nm, emission at 495 nm and 520 nm). The final readout is the emission ratio 520 nm/495 nm. Each data point is the average of 4 replicates.

[7] = target: T3, VEGFR2 (KDR) (Homo sapiens, UniProt P35968); assay: LanthaScreen TR-FRET kinase assay, VEGFR2 (KDR); assay type: biochemical; conditions: for inhibition of FRET signal of VEGFR2 tyrosine kinase: compounds at 25 micromolar, FIG. 3
T3 construct: purchased Invitrogen
T3 sequence (P35968 20-1356): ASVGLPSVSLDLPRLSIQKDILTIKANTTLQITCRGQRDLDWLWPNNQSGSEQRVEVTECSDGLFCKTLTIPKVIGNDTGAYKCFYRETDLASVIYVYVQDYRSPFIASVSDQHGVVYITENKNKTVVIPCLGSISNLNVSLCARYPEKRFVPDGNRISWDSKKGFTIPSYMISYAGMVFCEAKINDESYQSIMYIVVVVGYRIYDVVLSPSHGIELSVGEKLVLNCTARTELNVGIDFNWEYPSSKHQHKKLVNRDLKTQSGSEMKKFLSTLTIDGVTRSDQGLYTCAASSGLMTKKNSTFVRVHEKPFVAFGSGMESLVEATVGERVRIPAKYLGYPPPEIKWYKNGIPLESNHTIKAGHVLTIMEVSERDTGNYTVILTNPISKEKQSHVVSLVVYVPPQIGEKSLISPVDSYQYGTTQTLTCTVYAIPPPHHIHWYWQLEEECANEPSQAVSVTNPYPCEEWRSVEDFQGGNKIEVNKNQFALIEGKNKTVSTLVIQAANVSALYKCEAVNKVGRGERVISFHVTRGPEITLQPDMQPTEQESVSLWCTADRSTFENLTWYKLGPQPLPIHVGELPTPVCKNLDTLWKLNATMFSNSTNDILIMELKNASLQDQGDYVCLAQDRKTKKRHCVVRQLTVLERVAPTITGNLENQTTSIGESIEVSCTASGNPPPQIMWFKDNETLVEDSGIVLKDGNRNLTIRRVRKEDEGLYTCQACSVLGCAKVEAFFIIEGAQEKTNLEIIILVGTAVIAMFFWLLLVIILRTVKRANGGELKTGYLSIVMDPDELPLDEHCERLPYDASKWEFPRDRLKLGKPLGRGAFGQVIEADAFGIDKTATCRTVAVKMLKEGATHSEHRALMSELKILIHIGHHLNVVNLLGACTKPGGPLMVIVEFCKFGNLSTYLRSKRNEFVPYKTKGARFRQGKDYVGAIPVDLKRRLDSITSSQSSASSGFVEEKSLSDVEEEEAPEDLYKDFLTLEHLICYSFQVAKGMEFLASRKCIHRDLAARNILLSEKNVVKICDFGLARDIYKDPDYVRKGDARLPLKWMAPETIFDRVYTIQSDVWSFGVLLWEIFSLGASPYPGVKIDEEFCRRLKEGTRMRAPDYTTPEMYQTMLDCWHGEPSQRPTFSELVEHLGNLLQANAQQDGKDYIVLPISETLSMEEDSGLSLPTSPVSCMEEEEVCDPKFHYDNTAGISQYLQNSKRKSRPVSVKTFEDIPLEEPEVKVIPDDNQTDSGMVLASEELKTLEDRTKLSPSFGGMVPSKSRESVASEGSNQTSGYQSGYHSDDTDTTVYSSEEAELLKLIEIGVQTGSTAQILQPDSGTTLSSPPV
Protocol: as §7, §8

[8] = target: T1, EGFR; assay: LanthaScreen TR-FRET kinase assay, EGFR; assay type: biochemical; set-up: purchased Invitrogen; conditions: compounds at 25 micromolar; FIG. 1
[9] = test system: HT29 cells; conditions: up to 100 nM; un-starved HT29 cells; data not shown
[10] = compounds at 25 micromolar, FIG. 2

## CCOC(=O)c1c(C)[nH]c(/C=C2\C(=O)Nc3ccccc32)c1C [VEGFR2 tyrosine kinase inhibitor I, (Z)-3-[(2,4-Dimethyl-3-(ethoxycarbonyl)pyrrol-5-yl)methylidenyl]indolin-2-one]
[1]; MTX at 16 micromolar
  impact on DMR signal of MTX in HT29: little impact
[2]; EGF at 32 nM
  impact on DMR signal of EGF in A431: little impact
[3]; EGF at 2 nM
  impact on DMR signal of EGF in HT29: little impact
[4]; NT at 2 nM
  impact on DMR signal of NT in HT29: little impact

## c1ccc(-c2cnc(Nc3ccc(OCCN4CCCC4)cc3)s2)cc1 [Flt3 inhibitor III, (5-Phenyl-thiazol-2-yl)-(4-(2-pyrrolidin-1-yl-ethoxy)-phenyl)-amine]
[1]; MTX at 16 micromolar
  impact on DMR signal of MTX in HT29: little impact
[2]; EGF at 32 nM
  impact on DMR signal of EGF in A431: little impact
[3]; EGF at 2 nM
  impact on DMR signal of EGF in HT29: little impact
[4]; NT at 2 nM
  impact on DMR signal of NT in HT29: little impact

## O=C1Nc2ccc(Br)cc2/C1=C/c1cc2c([nH]1)CCCC2 [VEGFR2 tyrosine kinase inhibitor II, (Z)-5-Bromo-3-(4,5,6,7-tetrahydro-1H-indol-2-ylmethylene)-1,3-dihydroindol-2-one]
[1]; MTX at 16 micromolar
  impact on DMR signal of MTX in HT29: little impact
[2]; EGF at 32 nM
  impact on DMR signal of EGF in A431: little impact
[3]; EGF at 2 nM
  impact on DMR signal of EGF in HT29: little impact
[4]; NT at 2 nM
  impact on DMR signal of NT in HT29: little impact

## O=C(O)c1cc(N(Cc2ccccc2O)Cc2cc(O)ccc2O)ccc1O [Lavendustin A]
[5]
  strength as EGFR inhibitor: weak EGFR inhibitor

## CN[C@@H]1C[C@H]2O[C@@](C)([C@@H]1OC)n1c3ccccc3c3c4c(c5c6ccccc6n2c5c31)C(=O)NC4 [staurosporine, reference compound]
[6]; at 10 micromolar
  inhibition of FRET signal of VEGFR1 tyrosine kinase: completely inhibited

## C[C@@H](N)[C@H]1CC[C@H](C(=O)Nc2ccncc2)CC1 [Compound Y-27632, reference compound]
[7]; concentration not given
  attenuation of FRET signal for VEGFR2 tyrosine kinase: significantly attenuated

## COc1cc2ncnc(Nc3cccc(Cl)c3)c2cc1OC [AG1478]
[1]; MTX at 16 micromolar
  impact on DMR signal of MTX in HT29: partial inhibition
[4]; NT at 2 nM
  impact on DMR signal of NT in HT29: partial inhibition

## CCCCCCc1csc2cc(C(=O)O)sc12 [Compound H, 6-hexyl-thieno[3,2-b]thiophene-2-carboxylic acid]
[8]
  inhibition of FRET signal of EGFR tyrosine kinase: less potent than the others
[7]
  inhibition of FRET signal of VEGFR2 tyrosine kinase: less potent than the others
[6]; [10]
  inhibition of FRET signal of VEGFR1 tyrosine kinase: less potent than the others

## CCCCCCCCCCc1csc2c(CCCCCC)c(C(=O)O)sc12 [I]
[1]; MTX at 16 micromolar, P-DMR 50 min after MTX stimulation
  modulation of MTX response in HT29, P-DMR: −60%
[1]; score = modulation percentage/10, 5th coordinate
  modulation index score, MTX in HT29 P-DMR: −6
[2]; EGF at 32 nM, N-DMR ~30 min after EGF stimulation
  modulation of EGF response in A431, N-DMR: −65%
[2]; EGF at 32 nM, early P-DMR ~5 min after EGF stimulation
  modulation of EGF response in A431, early P-DMR: −60%
[2]; score = modulation percentage/10, 2nd coordinate
  modulation index score, EGF in A431 N-DMR: −6.5
[3]; EGF at 2 nM, early P-DMR ~5 min after EGF stimulation
  modulation of EGF response in HT29, early P-DMR: −70%
[3]; EGF at 2 nM, late P-DMR ~50 min after EGF stimulation
  modulation of EGF response in HT29, late P-DMR: −100%
[3]; score = modulation percentage/10, 3rd coordinate
  modulation index score, EGF in HT29 early P-DMR: −7
[3]; score = modulation percentage/10, 4th coordinate
  modulation index score, EGF in HT29 late P-DMR: −10
[4]; NT at 2 nM, P-DMR 50 min after NT stimulation
  modulation of NT response in HT29, P-DMR: −106%
[4]; score = modulation percentage/10, 6th coordinate
  modulation index score, NT in HT29 P-DMR: −10.6

## Cc1csc2c1sc1cc(C(=O)O)sc12 [Compound K, 5-methyldithieno[3,2-b:2′3′-d] thiophene-2-carboxyl acid]
[8]
  inhibition of FRET signal of EGFR tyrosine kinase: less potent than the others
[7]
  inhibition of FRET signal of VEGFR2 tyrosine kinase: less potent than the others
[6]; [10]
  inhibition of FRET signal of VEGFR1 tyrosine kinase: less potent than the others

## 6H-Indeno[1,2-e]tetrazolo[1,5-b][1,2,4]triazin-6-one & 10H-Indeno[2,1-e]tetrazolo[1,5-b][1,2,4]triazin-10-one [dual PDK1/AKT/Flt1 pathway inhibitor]
[2]; EGF at 32 nM, early P-DMR
  effect on early P-DMR event in the EGF response in A431: almost completely attenuated
[3]; EGF at 2 nM, early P-DMR
  effect on early P-DMR event of the EGF response in HT29: almost completely attenuated
[3]; EGF at 2 nM, late P-DMR
  effect on late P-DMR event of the EGF response in HT29: almost completely attenuated

## VEGF
[9]
  DMR signal triggered: very small DMR signal

## CCCCCCc1csc2c(CCCCCC)c(C(=O)O)sc12 [Compound J, 3,6-Dihexyl-thieno[3,2-b]thiophene-2-carboxylic acid]
[8]
  inhibition of FRET signal of EGFR tyrosine kinase: less potent than the others
[7]
  inhibition of FRET signal of VEGFR2 tyrosine kinase: less potent than the others
[6]; [10]
  inhibition of FRET signal of VEGFR1 tyrosine kinase: less potent than the others
